According to patent US20240000942A1, “Craniofacial implant made of polyether ether ketone (PEEK) with deposits to store and release active substances or active Ingredient” (Arcosystem SPA, priority 2022, published 2024):
Where “and” joins values, the source holds several entries; their conditions need not be identical. Identical values can stand only once. Entries after “also recorded” stand apart in the source; their conditions may differ.

Assay: Stability of the vancomycin solution within the implant reservoir (HPLC)
Type: physicochemical
Description: For this, a time zero (To) sample corresponding to a sample that was immediately analyzed after its reconstitution was analyzed, along with a sample that was left to rest for 24 hours within the implant. In this way, results from the 24 hour time frame were compared with those of time zero as sample areas and degradation percentage at 24 hours.
Shaking up to the complete solution of the lyophilized powder, taking 0.5 mL of said ampule, and diluted with physiological saline solution up to 5 mL of final volume. This 5 mL of solution is injected in the reservoir of the implant. […] Said 0.5 mL were diluted up to 5 mL of final volume using 0.2M potassium dibasic phosphate buffer adjusted to pH 7.4. Then, using a syringe, said volume was loaded in the reservoir or capsule of the implant, the implant was then sealed and incorporated in an empty beaker. Nominal concentration of the solution within the reservoir is […].
After 24 hours, the chamber or reservoir was opened to extract the 0.5 mL of the solution contained within. Of said 0.5 mL extracted from the reservoir, a 0.1 mL aliquot is taken that then is transferred to a 100 mL flask for its analysis using HPLC, considering the same calibration and standard curves that were described for the previous example.

## CN[C@H](CC(C)C)C(=O)N[C@H]1C(=O)N[C@@H](CC(N)=O)C(=O)N[C@H]2C(=O)N[C@H]3C(=O)N[C@H](C(=O)N[C@H](C(=O)O)c4cc(O)cc(O)c4-c4cc3ccc4O)[C@H](O)c3ccc(c(Cl)c3)Oc3cc2cc(c3O[C@@H]2O[C@H](CO)[C@@H](O)[C@H](O)[C@H]2O[C@H]2C[C@](C)(N)[C@H](O)[C@H](C)O2)Oc2ccc(cc2Cl)[C@H]1O [vancomycin]
24 hour period within the implant
  HPLC sample area: 94679 and 94744
24 hour period within the implant, mean
  HPLC sample area: 94711.5
24 hours
  degradation of vancomycin within the implant (in words): not significant; also recorded: no indication of significative degradation
Time 0 (analyzed immediately after reconstitution)
  HPLC sample area: 948050 and 948671
Time 0 (analyzed immediately after reconstitution), mean
  HPLC sample area: 948360.5
